Test results: patent publication US6831199B1, “Pyrimidine compounds and derivatives thereof” (G. D. Searle & Co., priority 1995, dated 2004)
Structures can show the parent of a compound that is named as a salt.

Experiments:
[1] = biological target: T1, Human fibrinogen receptor (αIIbβ3) (Homo sapiens, UniProt P05106+P08514); test: Purified IIb/IIIa receptor assay (solid phase receptor assay, competition with biotinylated vitronectin); assay type: binding; conditions: read-out: IIb/IIIa IC50
T1 construct: Human fibrinogen receptor (αIIbβ3) was purified from outdated platelets; from tissue; host or cells: outdated human platelets
Summary of the method: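 Purified platelet αIIbβ3 coated overnight at 4 °C in TBS with 1.0 mM Ca/Mg/Mn, pH 7.4, then BSA-blocked. Compounds (top 1.0×10^−4 M) competed with 1 nM biotinylated vitronectin for 2 h at room temperature. Bound label detected by HRP anti-biotin, A450; values normalized to no-competitor controls, four-parameter fit.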

[2] = biological target: T2, Human vitronectin receptor (αvβ3) (Homo sapiens, UniProt P05106+P06756); test: Vitronectin adhesion assay (solid phase receptor assay, competition with biotinylated vitronectin); assay type: binding; conditions: read-out: AvB3 IC50
T2 construct: Human vitronectin receptor (αvβ3) was purified from human placenta; from tissue; host or cells: human placenta
Summary of the method: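 Purified human αvβ3 coated overnight at 4 °C in TBS with 1.0 mM Ca++, Mg++, Mn++, pH 7.4; compounds (top final 1.0×10^−4 M) competed with 1 nM biotinylated vitronectin for 2 h at room temperature. Bound ligand detected by HRP anti-biotin/OPD at A450; values normalized to no-competitor controls, four-parameter curve fit.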

| Compound | IC50 [1] | IC50 [2] |
| --- | --- | --- |
| N=C(N)Nc1cccc(C(=O)NCC(=O)NC(CC(=O)O)C(=O)NCCO)c1 (racemic) [Example 89, (±)3-[[2-[[[3-[(aminoiminomethyl)amino]phenyl]carbonyl]amino]acetyl]amino]-4-[(2-hydroxyethyl)amino]-4-oxobutanoic acid, trifluoroacetate salt] | 9.83 µM | 1.24 µM |
| N=C(Nc1cccc(C(=O)NCC(=O)NC(CC(=O)O)c2cc(Cl)cc(Cl)c2)c1)N1CCCCC1 (stereo not drawn) [Example 285, 3,5-dichloro-β-[[2-[[[3-[[imino(1-piperidinyl)methyl]amino]phenyl]carbonyl]amino]acetyl]amino]benzenepropanoic acid, trifluoroacetate salt] | 3.17 µM | 0.229 µM |
| CC1(C)CN=C(Nc2cccc(C(=O)NCC(=O)NC(CC(=O)O)c3cc(Cl)cc(Cl)c3O)c2)NC1 (racemic) [Example 362, (±)3,5-dichloro-2-hydroxy-β-[[2-[[[3-[(1,4,5,6-tetrahydro-5,5-dimethylpyrimidin-2-yl)amino]phenyl]carbonyl]amino]acetyl]amino]benzenepropanoic acid, trifluoroacetate salt] | 7.26 µM | 0.00084 µM |
| N=C(N)Nc1cc(C(=O)NCC(=O)NC(CC(=O)O)c2cc(Cl)cc(Br)c2)cc(C(F)(F)F)c1 (racemic) [Example 216, (±)β-[[2-[[[3-[(aminoiminomethyl)amino]-5-(trifluoromethyl)phenyl]carbonyl]amino]acetyl]amino]-3-bromo-5-chlorobenzenepropanoic acid, trifluoroacetate salt] | 0.326 µM | 0.001 µM |
| CCOC(=O)/N=C(/NC(=O)OCC)Nc1cccc(C(=O)NCC(=O)NC(CC(=O)O)c2cc(Cl)cc(Cl)c2)c1 (stereo not drawn) [Example 166, 3,5-dichloro-β-[[2-[[[3-[[[(ethoxycarbonyl)amino][(ethoxycarbonyl)imino]methyl]amino]phenyl]carbonyl]amino]acetyl]amino]benzenepropanoic acid] | 45.9 µM | 13 µM |
| O=C(O)CC(NC(=O)CNC(=O)c1cccc(NC(=O)NCc2nc3ccccc3[nH]2)c1)c1cc(Cl)cc(Cl)c1 (stereo not drawn) [Example 272, β-[[2-[[[3-[[[[(1H-benzimidazol-2-yl)methyl)amino]carbonyl]amino]phenyl]carbonyl]amino]acetyl]amino]-3,5-dichlorobenzenepropanoic acid, trifluoroacetate salt] | 8.21 µM | 0.893 µM |
| CS(=O)(=O)c1cccc(C(CC(=O)O)NC(=O)CNC(=O)c2cccc(NC(=N)N)c2)c1 (stereo not drawn) [Example 247, β-[[2-[[[3-[(aminoiminomethyl)amino]phenyl]carbonyl]amino]acetyl]amino]-3-(methylsulfonyl)benzenepropanoic acid, bis(trifluoroacetate)salt] | 0.417 µM | 0.00124 µM |
| N=C(N)Nc1cccc(C(=O)NCC(=O)NC(CC(=O)O)c2cc(Cl)cc(Br)c2)c1 (racemic) [Example 214, (±)β-[[2-[[[3-[(aminoiminomethyl)amino]phenyl]carbonyl]amino]acetyl]amino]-3-bromo-5-chlorobenzenepropanoic acid, trifluoroacetate salt] | 0.454 µM | 0.00235 µM |
| N=C(N)Nc1cccc(C(=O)NCC(=O)NC(CC(=O)O)c2cc(N)ccc2O)c1 (racemic) [Example 234, (±)5-amino-β-[[2-[[[3-[(aminoiminomethyl)amino]phenyl]carbonyl]amino]acetyl]amino]-2-hydroxybenzenepropanoic acid, bis(trifluoroacetate)salt, monohydrate] | 0.83 µM | 0.0893 µM |
| CC(C)Oc1cc(OC(C)C)cc(C(CC(=O)O)NC(=O)CNC(=O)c2cccc(NC(=N)N)c2)c1 (stereo not drawn) [Example 275, β-[[2-[[[3-[(aminoiminomethyl)amino]phenyl]carbonyl]amino]acetyl]amino]-3,5-bis(1-methylethoxy)benzenepropanoic acid, trifluoroacetate salt] | 1.2 µM | 0.00698 µM |
| N=C(N)Nc1cccc(C(=O)NCC(=O)NC(CC(=O)O)c2cc(F)cc(Br)c2)c1 (racemic) [Example 209, (±)β-[[2-[[[3-[(aminoiminomethyl)amino]phenyl]carbonyl]amino]acetyl]amino]-3-bromo-5-fluorobenzenepropanoic acid, trifluoroacetate salt] | 0.14 µM | 0.00083 µM |
| N=C(N)Nc1cccc(C(=O)NCC(=O)NC(CC(=O)O)c2ccccc2OCC(=O)O)c1 (stereo not drawn) [Example 255, β-[[2-[[[3-[(aminoiminomethyl)amino]phenyl]carbonyl]amino]acetyl]amino]-2(carboxymethoxy)benzenepropanoic acid, trifluoroacetate salt] | 6.05 µM | 0.0284 µM |
| O=C(O)CC(NC(=O)CNC(=O)c1cccc(NC2=NCCCCC2)c1)c1cc(Cl)cc(Cl)c1 (racemic) [Example 189, (±)β-[[2-[[[3-[(3,4,5,6-tetrahydro-2H-azepin-7-yl)amino]phenyl]carbonyl]amino]acetyl]amino]-3,5-dichlorobenzenepropanoic acid, trifluoroacetate salt] | 1.98 µM | 0.00403 µM |
| NC(=S)Nc1cccc(C(=O)NCC(=O)NC(CC(=O)O)c2cc(Cl)cc(Cl)c2)c1 (racemic) [Example 206, (±)β-[[2-[[[3-[(aminothioxomethyl)amino]phenyl]carbonyl]amino]acetyl]amino]-3,5-dichlorobenzenepropanoic acid] | 22 µM | 0.0785 µM |
| CCOC(=O)CC(NC(=O)CNC(=O)c1cccc(NC2=NCCS2)c1)c1cccnc1 (stereo not drawn) [Example 100, ethyl β-[[2-[[[3-[(4,5-dihydrothiazol-2-yl)amino]phenyl]carbonyl]amino]acetyl]amino]pyridine-3-propanoate, trifluoroacetate salt] | > 100 µM | 8.56 µM |
| N=C(N)Nc1cccc(C(=O)NCC(=O)NC(CC(=O)O)c2c(F)c(F)cc(F)c2F)c1 (racemic) [Example 365, (±)β-[[2-[[[3-[(aminoiminomethyl)amino]phenyl]carbonyl]amino]acetyl]amino]-2,3,5,6-tetrafluorobenzenepropanoic acid, trifluoroacetate salt] | 8.47 µM | 0.0169 µM |
| N=C(N)Nc1cccc(C(=O)NCC(=O)NC(CC(=O)O)c2ccc(Cl)c(Cl)c2)c1 (racemic) [Example 175, (±)β-[[2-[[[3-[(aminoiminomethyl)amino]phenyl]carbonyl]amino]acetyl]amino]-3,4-dichlorobenzenepropanoic acid, trifluoroacetate salt] | 0.205 µM | 0.00212 µM |
| N=C(N)Nc1cccc(C(=O)NCC(=O)NC(CC(=O)O)c2ccc(F)cc2)c1 (stereo not drawn) [Example 363, β-[[2-[[[3-[(aminoiminomethyl)amino]phenyl]carbonyl]amino]acetyl]amino]-4-fluorobenzenepropanoic acid, trifluoroacetate salt] | 0.509 µM | 0.00212 µM |
| CCOC(=O)CC(NC(=O)CNC(=O)c1cccc(NC(=O)Nc2ccccc2)c1)c1ccc2c(c1)OCO2 (stereo not drawn) [Example 123, ethyl β-[[2-[[[3-3-[[(phenylamino)carbonyl]amino]phenyl]carbonyl]amino]acetyl]amino]-1,3-benzodioxole-5-propanoate] | 85.5 µM | 11.8 µM |
